The IC50 is the concentration needed to halve the response being measured.

The values below come from patent US11866430B2, “Naphthyridinone compounds useful as T cell activators” (priority 2018, dated 2024).

Test [1] has as its target T1, human DGKα (Homo sapiens (Human), UniProt P23743). As to the kind of experiment: DGKα LIPGLO assay (extruded liposome substrate). It counts as biochemical. The essentials: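 Human full-length DGKα, His-tagged and produced in Sf9 cells, assayed at 20 nM (4× stock) on extruded liposomes of PS, 0.25 mM DAG and 2.75 mM PC, preincubated 10 min. Reaction started with 300 μM ATP (stock) and ran 1 h in MOPS pH 7.5/MgCl2/CaCl2/DTT buffer.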

In test [2] the target is T2, human DGKζ (Homo sapiens (Human), UniProt Q13574). Nature of the test: DGKζ LIPGLO assay (extruded liposome substrate). The test is classed as biochemical. Conditions: extruded liposome substrate; read-out: DGKζ LIPGLO IC50. The essentials: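 Recombinant DGKζ (Sf9-expressed, Ni/SEC/SP-purified) preincubated 10 min with extruded 100 nm PC/DAG/PS liposomes in 50 mM MOPS pH 7.5, 100 mM NaCl, 10 mM MgCl2, 1 μM CaCl2, 1 mM DTT. Started with 300 uM ATP solution (stock, pre-addition); 1 hr reaction. ADP-Glo luminescence; IC50 from 11 concentrations.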
T2 sequence (Q13574 other isoform, or with tags, fused parts or gaps): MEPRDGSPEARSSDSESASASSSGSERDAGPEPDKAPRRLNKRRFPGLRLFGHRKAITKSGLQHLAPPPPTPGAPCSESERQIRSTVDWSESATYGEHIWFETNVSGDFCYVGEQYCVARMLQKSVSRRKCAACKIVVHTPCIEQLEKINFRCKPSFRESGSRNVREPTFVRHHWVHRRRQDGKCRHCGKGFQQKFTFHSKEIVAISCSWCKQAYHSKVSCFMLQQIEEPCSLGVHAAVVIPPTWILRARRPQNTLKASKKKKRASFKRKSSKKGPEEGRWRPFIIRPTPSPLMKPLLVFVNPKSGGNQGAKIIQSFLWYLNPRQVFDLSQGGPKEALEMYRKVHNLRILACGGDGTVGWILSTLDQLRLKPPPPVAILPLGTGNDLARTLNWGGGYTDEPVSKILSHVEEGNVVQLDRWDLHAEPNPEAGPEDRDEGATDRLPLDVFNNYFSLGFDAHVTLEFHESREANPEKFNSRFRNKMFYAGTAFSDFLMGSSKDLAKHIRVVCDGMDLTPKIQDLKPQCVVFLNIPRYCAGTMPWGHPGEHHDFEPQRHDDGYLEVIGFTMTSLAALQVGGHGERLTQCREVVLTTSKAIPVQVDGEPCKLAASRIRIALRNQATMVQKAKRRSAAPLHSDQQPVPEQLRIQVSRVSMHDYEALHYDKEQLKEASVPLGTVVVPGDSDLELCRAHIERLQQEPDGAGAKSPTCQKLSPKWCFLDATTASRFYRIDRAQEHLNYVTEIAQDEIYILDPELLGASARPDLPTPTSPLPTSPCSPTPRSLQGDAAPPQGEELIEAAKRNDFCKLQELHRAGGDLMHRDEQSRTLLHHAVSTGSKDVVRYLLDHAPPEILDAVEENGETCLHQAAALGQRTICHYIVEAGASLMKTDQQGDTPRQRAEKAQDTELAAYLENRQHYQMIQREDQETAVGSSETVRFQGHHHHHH

The target of test [3] is T1, human DGKα. As to the kind of experiment: biochemical. The following applies: detergent/lipid micelle substrate; read-out: DGKα IC50. The essentials:
(§1)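 Full-length human DGKα or DGKζ (C-terminal His tag, Sf9-expressed; 20 nM 4× stock) was preincubated 10 min at room temperature with PS/DAG octyl glucoside micelles in MOPS pH 7.5 buffer with MgCl2, CaCl2 and DTT. It was then started with ATP (300 uM addition) and run for 1 hr, with ADP-Glo luminescence read-out.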

The target in test [4] is T2, human DGKζ. As to the kind of experiment: DGKζ assay (detergent/lipid micelle substrate). It counts as biochemical. The following applies: detergent/lipid micelle substrate; read-out: DGKζ IC50. The essentials:
as §1

The test system of test [5] is pre-activated CD4 T cells and Raji cells. As to the kind of experiment: Raji CD4 T Cell IL2 Assay. It counts as cell-based. The following applies: Homo sapiens, Raji.

T1 sequence (P23743 other isoform, or with tags, fused parts or gaps): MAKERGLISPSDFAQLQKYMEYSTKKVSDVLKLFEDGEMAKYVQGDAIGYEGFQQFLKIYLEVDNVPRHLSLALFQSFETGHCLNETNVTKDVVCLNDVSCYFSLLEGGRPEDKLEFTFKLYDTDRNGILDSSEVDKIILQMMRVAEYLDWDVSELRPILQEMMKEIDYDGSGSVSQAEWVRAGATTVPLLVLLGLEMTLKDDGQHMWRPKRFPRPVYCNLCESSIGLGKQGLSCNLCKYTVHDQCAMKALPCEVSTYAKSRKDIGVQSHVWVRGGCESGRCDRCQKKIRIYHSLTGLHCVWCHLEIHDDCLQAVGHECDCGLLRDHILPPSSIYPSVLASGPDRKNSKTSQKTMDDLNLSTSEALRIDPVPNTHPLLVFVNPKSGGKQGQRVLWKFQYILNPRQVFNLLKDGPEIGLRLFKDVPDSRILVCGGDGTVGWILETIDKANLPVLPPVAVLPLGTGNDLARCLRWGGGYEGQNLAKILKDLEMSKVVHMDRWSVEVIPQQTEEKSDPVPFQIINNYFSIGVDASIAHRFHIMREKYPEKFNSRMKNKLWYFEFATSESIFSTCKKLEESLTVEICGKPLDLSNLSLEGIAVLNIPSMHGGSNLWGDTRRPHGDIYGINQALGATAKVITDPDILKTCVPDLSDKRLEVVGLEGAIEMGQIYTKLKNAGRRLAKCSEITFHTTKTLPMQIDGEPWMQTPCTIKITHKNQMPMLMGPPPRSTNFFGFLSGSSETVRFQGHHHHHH

For `CCC(c1ccc(F)cc1)N1CCN(c2c(C#N)c(=O)n(CC#N)c3ccc(Br)nc23)CC1` (centres unmarked) [Example 155, 6-bromo-1-(cyanomethyl)-4-(4-(1-(4-fluorophenyl)propyl)piperazin-1-yl)-2-oxo-1,2-dihydro-1,5-naphthyridine-3-carbonitrile], the IC50 is 71 µM against human DGKα [1]; 63 µM at human DGKζ [2]; 24 µM at human DGKα [3]; 230 µM at human DGKζ [4]; 1.6 µM in test [5].
For `N#CCCCn1c(=O)c([N+](=O)[O-])c(N2CCN(C(c3ccccc3)c3ccccc3)CC2)c2ncccc21` [Example 183, 4-(4-(4-benzhydrylpiperazin-1-yl)-3-nitro-2-oxo-1,5-naphthyridin-1(2H)-yl)butanenitrile], the IC50 is over 240 µM against human DGKα [1]; 21 µM on human DGKζ [2]; 52 µM on human DGKα [3]; over 240 µM on human DGKζ [4]; 3.2 µM in test [5].
In the case of `Cn1c(=O)c(C#N)c(N2CCN(Cc3ccc(F)cc3O)CC2)c2nc(Br)ccc21` [Example 192, 6-bromo-4-(4-(4-fluoro-2-hydroxybenzyl)piperazin-1-yl)-1-methyl-2-oxo-1,2-dihydro-1,5-naphthyridine-3-carbonitrile], the IC50 on human DGKα [1] is 0.048 µM; at human DGKζ [2], 8.1 µM; at human DGKα [3], 0.084 µM; at human DGKζ [4], over 240 µM; in test [5] it was 0.2 µM.
`Cn1c(=O)c(C#N)c(N2CCN(Cc3ccc(F)cc3O)CC2)c2nc(Cl)ccc21` [Example 193, 6-chloro-4-(4-(4-fluoro-2-hydroxybenzyl)piperazin-1-yl)-1-methyl-2-oxo-1,2-dihydro-1,5-naphthyridine-3-carbonitrile]: the IC50 against human DGKα [1] is 0.089 µM; at human DGKζ [2] it was 6.5 µM; on human DGKα [3], 0.22 µM; on human DGKζ [4], over 240 µM; in test [5], 0.13 µM.
In the case of `Cc1ccc2c(n1)c(N1CCN(Cc3ccc(F)cc3O)CC1)c(C#N)c(=O)n2C` [Example 194, 4-(4-(4-fluoro-2-hydroxybenzyl)piperazin-1-yl)-1,6-dimethyl-2-oxo-1,2-dihydro-1,5-naphthyridine-3-carbonitrile], the IC50 against human DGKα [1] amounted to 0.18 µM; at human DGKζ [2], 8.3 µM; on human DGKα [3] it was 0.076 µM; on human DGKζ [4] it was 62 µM; in test [5], 0.44 µM.
On to `C=CCOc1cc(F)ccc1C(C)N1CCN(c2c(C#N)c(=O)n(C)c3ccc(Cl)nc23)CC1` (centres unmarked) [Example 195, 4-(4-(1-(2-(allyloxy)-4-fluorophenyl)ethyl)piperazin-1-yl)-6-chloro-1-methyl-2-oxo-1,2-dihydro-1,5-naphthyridine-3-carbonitrile], for which the IC50 on human DGKα [1] was 1.7 µM; on human DGKζ [2], 98 µM; at human DGKα [3], 0.22 µM; on human DGKζ [4], over 240 µM; in test [5], 0.12 µM.
For the compound `Cn1c(=O)c(C#N)c(N2CCN(C(c3ccccc3)c3ccccc3)CC2)c2ncccc21` [Example 196, 4-(4-benzhydrylpiperazin-1-yl)-1-methyl-2-oxo-1,2-dihydro-1,5-naphthyridine-3-carbonitrile], the IC50 is 2.7 µM against human DGKα [1]; 43 µM at human DGKζ [2]; 4 µM on human DGKα [3]; over 240 µM at human DGKζ [4]; 2.1 µM in test [5].
Consider `Cn1c(=O)c(C#N)c(N2CCN(Cc3cccc4c3NCC4)CC2)c2nc(Cl)ccc21` [Example 216, 6-chloro-4-(4-(indolin-7-ylmethyl)piperazin-1-yl)-1-methyl-2-oxo-1,2-dihydro-1,5-naphthyridine-3-carbonitrile], for which the IC50 worked out at 1.2 µM on human DGKα [1]; 4.8 µM at human DGKζ [2]; 1.4 µM at human DGKα [3]; 54 µM at human DGKζ [4]; 0.064 µM in test [5].
In the case of `Cn1c(=O)c(C#N)c(N2CCN(C(c3ccc(F)cc3)c3ccc(F)cc3)CC2)c2nc(C#N)ccc21` [Example 217, 8-(4-(bis(4-fluorophenyl)methyl)piperazin-1-yl)-5-methy-6-oxo-5,6-dihydro-1,5-naphthyridine-2,7-dicarbonitrile], the IC50 against human DGKα [1] was 1.3 µM; at human DGKζ [2] it was 1.4 µM; on human DGKα [3], 2.3 µM; on human DGKζ [4], 4.5 µM; in test [5] it was 0.067 µM.
In the case of `Cn1c(=O)c(C#N)c(N2CCN(C(c3ccc(F)cc3)c3ccc(F)cc3)CC2)c2nc(Cl)ccc21` [Example 218, 4-(4-(bis(4-fluorophenyl)methyl)piperazin-1-yl)-6-chloro-1-methyl-2-oxo-1,2-dihydro-1,5-naphthyridine-3-carbonitrile], the IC50 was 1.5 µM against human DGKα [1]; 5.1 µM at human DGKζ [2]; 0.69 µM at human DGKα [3]; over 81 µM at human DGKζ [4]; 0.093 µM in test [5].
For `Cn1c(=O)c(C#N)c(N2CCN(Cc3cccc4ccccc34)CC2)c2nc(Cl)ccc21` [Example 221, 6-chloro-1-methyl-4-(4-(naphthalen-1-ylmethyl)piperazin-1-yl)-2-oxo-1,2-dihydro-1,5-naphthyridine-3-carbonitrile] the same measures were 3.4 µM, 18 µM, 0.74 µM, over 240 µM and 0.33 µM.
For `Cn1c(=O)c([N+](=O)[O-])c(N2CCN(C(c3ccccc3)c3ccccc3)CC2)c2nc(C#N)ccc21` [Example 223, 8-(4-benzhydrylpiperazin-1-yl)-5-methyl-7-nitro-6-oxo-5,6-dihydro-1,5-naphthyridine-2-carbonitrile], the IC50 was 9.9 µM against human DGKα [1]; 0.62 µM at human DGKζ [2]; 1.9 µM on human DGKα [3]; 3.2 µM at human DGKζ [4]; 0.042 µM in test [5].
For the compound `CCn1ccc2c(CN3CCN(c4c(C#N)c(=O)n(C)c5ccc(Br)nc45)CC3)cccc21` [Example 225, 6-bromo-4-(4-((1-ethyl-1H-indol-4-yl)methyl)piperazin-1-yl)-1-methyl-2-oxo-1,2-dihydro-1,5-naphthyridine-3-carbonitrile], the IC50 against human DGKα [1] came out at 0.82 µM; on human DGKζ [2] it was 1.3 µM; on human DGKα [3], 0.39 µM; on human DGKζ [4] it was 14 µM; in test [5] it was 0.07 µM.
In the case of `Cc1ccc2c(n1)c(N1CCN(C(c3ccc(F)cc3)c3ccc(F)cc3)CC1)c(C#N)c(=O)n2C` [Example 226, 4-(4-(bis(4-fluorophenyl)methyl)piperazin-1-yl)-1,6-dimethyl-2-oxo-1,2-dihydro-1,5-naphthyridine-3-carbonitrile], the IC50 is 3.9 µM against human DGKα [1]; 10 µM at human DGKζ [2]; 1.6 µM on human DGKα [3]; 70 µM at human DGKζ [4]; 0.084 µM in test [5].
As to `Cn1c(=O)c(C(=O)C(F)(F)F)c(N2CCN(C(c3ccc(F)cc3)c3ccc(F)cc3)CC2)c2ncccc21` [Example 227, 4-(4-(bis(4-fluorophenyl)methyl)piperazin-1-yl)-1-methyl-3-(2,2,2-trifluoroacetyl)-1,5-naphthyridin-2(1H)-one], the IC50 is 230 µM against human DGKα [1]; 11 µM at human DGKζ [2]; over 240 µM at human DGKα [3]; over 240 µM at human DGKζ [4]; 1.5 µM in test [5].
Take `C#CCn1c(=O)c(C#N)c(N2CCN(C(c3ccc(F)cc3)c3ccc(F)cc3)CC2)c2nc(Br)ccc21` [Example 229, 4-(4-(bis(4-fluorophenyl)methyl)piperazin-1-yl)-6-bromo-2-oxo-1-(prop-2-yn-1-yl)-1,2-dihydro-1,5-naphthyridine-3-carbonitrile]: the concentration for half-maximal inhibition (IC50) against human DGKα [1] was over 240 µM; at human DGKζ [2] it was 11 µM; at human DGKα [3] it was 14 µM; at human DGKζ [4] it was 14 µM; in test [5], 0.12 µM.
In the case of `Cc1ccc2c(n1)c(N1CCN(C(c3ccc(F)cc3)c3ccc(F)cc3)CC1)c(Cl)c(=O)n2C` [Example 233, 4-(4-(bis(4-fluorophenyl)methyl)piperazin-1-yl)-3-chloro-1,6-dimethyl-1,5-naphthyridin-2(1H)-one], the IC50 on human DGKα [1] was 3 µM; on human DGKζ [2], 6.6 µM; at human DGKα [3], 8.4 µM; at human DGKζ [4], over 240 µM; in test [5] it was 0.48 µM.
For `Cc1ccc2c(n1)c(N1CCN(C(c3ccc(F)cc3)c3ccc(F)cc3)CC1)c(Br)c(=O)n2C` [Example 239, 4-(4-(bis(4-fluorophenyl)methyl)piperazin-1-yl)-3-bromo-1,6-dimethyl-1,5-naphthyridin-2(1H)-one] the same measures were 9.9 µM, 51 µM, 11 µM, over 240 µM and 3.6 µM.
For `Cn1c(=O)c(C#N)c(N2CCN(Cc3c(O)cccc3Br)CC2)c2nc(Cl)ccc21` [Example 258, 4-{4-[(2-bromo-6-hydroxyphenyl)methyl]piperazin-1-yl}-6-chloro-1-methyl-2-oxo-1,2-dihydro-1,5-naphthyridine-3-carbonitrile] the same measures were 1.6 µM, 5.3 µM, 0.43 µM, 26 µM and 0.0053 µM.
